Reference: patent EP1380574B1, “9-aminoacridine derivates and process for the preparation thereof” (Samjin Pharmaceutical Co., Ltd., priority 1998, dated 2000)
Values after ≈ are worked out from the molar mass of the structure shown.

Tests used:
[1] = test system: A549 (human non-small lung cell); test: In vitro antitumor effect against human tumor cell lines, SRB assay; format: cell-based; conditions: A 549 cells, 48 hours with drug
Experimental: (§1) Experimental 1 : In vitro antitumor effect against human tumor cell lines.
(§2) A. Tumor cell lines : A549 (human non-small lung cell)
(§3) • SKOV-3 (human ovarian) • HCT-15 (human colon) • XF-498 (human CNS) • SKMEL-2 (human melanoma)
(§4) • a. Human solid tumor cell lines, A549(non-small lung cell), SKMEL-2(melanoma), HCT-15(colon), SKOV-3(ovarian) and XF-498(CNS) were cultured in 5% CO2 incubators using the RPMI 1640 media containing 10% FBS at 37°C, while with transfer-culturing successively once or twice per week. Cell cultures were dissolved in a solution of 0.25% trysin and 3 mmol CDTA PBS(-) to separate the cells sticked on the culture media. • b. 5× 10^3∼2× 10^4 cells were added into each well of 96-well plate and cultured in 5% CO2 incubator at 37°C for 24 hours. • c. Each sample drug was dissolved in a little DMSO and diluted with the used medium to a prescribed concentration for experiment, while the final concentration of DMSO was adjusted below 0.5%. • d. Medium of each well cultured for 24 hours as above b. was removed by aspiration. Each 200µl of drug samples prepared in c. was added into each well and the wells were cultured for 48 hours. Tz (time zero) plates were collected at the point of time drugs were added. • e. According to the SRB assay method, cell fixing with TCA, staining with 0.4% SRB solution, washing with 1% acetic acid and elution of dye with 10mmol Tris solution were carried out on Tz plates and culture-ended plates, and then, OD values were measured at 520 nm.
(§5) • a. Time zero(Tz) value was determined with measuring the SRB protein value at the point of time drugs were added. • b. Control value (C) was determined with the OD value of an well untreated with drug. • c. Drug-treated test value (T) was determined with the OD value of drug-treated well. • d. Effects of drugs were estimated with growth stimulation, net growth inhibition and net killing calculated from Tz, C and T values. • e. If T ≥ Tz, cellular response function was calculated by 100x(T-Tz)/(C-Tz), and, if T 〈 Tz, by 100× (T-Tz)/Tz.

HCT-15 (human colon) = test: as above; format: cell-based; conditions: HCT 15 cells, 48 hours with drug
Experimental: as §1, §2, §3, §4, §5

SKMEL-2 (human melanoma) = test: as above; format: cell-based; conditions: SK-MEL-2 cells, 48 hours with drug
Experimental: as §1, §2, §3, §4, §5

SKOV-3 (human ovarian) = test: as above; format: cell-based; conditions: SK-OV-3 cells, 48 hours with drug
Experimental: as §1, §2, §3, §4, §5

XF-498 (human CNS) = test: as above; format: cell-based; conditions: XF-498 cells, 48 hours with drug
Experimental: as §1, §2, §3, §4, §5

Topoisomerase II = test: Inhibition of Topoisomerase II activity (DNA relaxation assay / DNA cleavage assay with supercoiled pBR322 DNA); format: biochemical; conditions: Topo II, 30 minutes at 37°C, table does not say which of the two assays
Experimental: Experimental 3 : Inhibition effects against the Topoisomerase II activities
The present compounds were tested for inhibition of Topoisomerase II activity by means of the relaxation assay using supercoiled pBR322 DNA as the substrate. Topo II and a sample inhibitor were added to a reaction system (50mmol Tris-HCl, pH 7.5, 50mmol KCl, 20mmol MgCl2, 0.5mmol EDTA, 2mmol ATP, 60µg/mℓ BSA) containing supercoiled pBR322 DNA and reacted for 30 minutes at 37°C. Then, a quarter by volume of Stop buffer (5% SDS, 50mmol EDTA, 30% glycerol, 0.1mg/mℓ xylene cyanol, 0.1mg/mℓ BPB) was added to the reaction system to stop the reaction. The resulting product went through electrophoresis on 0.7% agarose gel and was stained by ethidium bromide solution. Mobility of DNA was measured under ultraviolet rays.
Topo II and a sample inhibitor were added to cleavage buffer (30mmol Tris-HCl, pH 7.5, 60mmol KCl, 10mmol MgCl2, 15mmol β -mercaptoethanol, 30µg/mℓ BSA) containing supercoiled pBR322 DNA and allowed to react for 30 minutes at 37°C. Then, […] by 1% was added to the reaction system to stop the reaction. Then, proteinase K was added thereto up to the concentration of 50 µg/mℓ and allowed to react for 30 minutes at 56°C. The reaction product was treated with phenol/chloroform to purify DNA, and the obtained DNA was loaded on agarose gel electrophoresis, transferred to nitrocellulose membrane and hybridized with probe DNA labelled with radioisotope. Then, the nitrocellulose membrane was covered with an X-ray film and exposed to be sensitized and developed, whereby the degree of cleavage of DNA was measured.

ICR mice = test: Acute toxicity test (LD50), Litchfield-Wilcoxon method; format: in vivo; conditions: i.p., ICR mice (male), observed during 14 days
[2] = test system: P388 (mouse lymphoid neoplasma cell); test: In vitro antitumor effect against animal leukemia cells, dye exclusion assay (trypan blue); format: cell-based; conditions: 48 hours, dye exclusion test using trypan blue, read-out: IC50 (concentration showing 50 % cell growth inhibition)
Text: Experimental 2 : In vitro antitumor effects against animal leukemia cells.
• Tumor cell lines : P388 (mouse lymphoid neoplasma cell)
B. Method : Dye Exclusion Assay.

[3] = Acute toxicity test (LD50), Litchfield-Wilcoxon method; format: in vivo; conditions: mouse, in vivo, ICR mice (male), observed during 14 days

Structure (SMILES) | ED50 [1] [µ g/ml] | ED50 (HCT-15 (human colon)) [µ g/ml] | ED50 (SKMEL-2 (human melanoma)) [µ g/ml] | ED50 (SKOV-3 (human ovarian)) [µ g/ml] | ED50 (XF-498 (human CNS)) [µ g/ml] | IC50 (Topoisomerase II) [µg/mL] | IC50 [2] [µg/mL] | also measured
COc1cccc(NC(=O)OCc2cc(N)cc(Nc3c4ccccc4nc4ccccc34)c2)c1 [Example 2, [3-(acridin-9-yl)amino-5-amino]benzyl N-(3-methoxyphenyl)carbamate] | 1.12 | 0.97 | 1.08 | 0.68 | 0.71 | 3 (≈ 6.46 µM) |  | 
N.N.[Cl][Pt][Cl] [Cisplatin, reference compound] | 0.81 | 3.03 | 0.71 | 0.71 | 0.77 |  |  | 
CC=Nc1cc(CO)cc(Nc2c3ccccc3nc3ccccc23)c1 [Example 35, 3-(acridin-9-yl)amino-5-(ethylideneamino)phenylmethanol] |  |  |  |  |  | 5 (≈ 14.6 µM) |  | 
Nc1cc(COC(=O)Nc2cc(F)cc(F)c2)cc(Nc2c3ccccc3nc3ccccc23)c1 [Example 12, [3-(acridin-9-yl)amino-5-amino]benzyl N-(3,5-difluorophenyl)carbamate] |  |  |  |  |  | 0.5 (≈ 1.06 µM) |  | LD50 (ICR mice): 150 mg/kg
CCCC=Nc1cc(CO)cc(Nc2c3ccccc3nc3ccccc23)c1 [Example 37, 3-(acridin-9-yl)amino-5-(butylideneamino)phenylmethanol] | 0.90 | 0.35 | 0.89 | 0.93 | 0.36 | 5 (≈ 13.5 µM) |  | 
COc1cc(NC(=S)OCc2cc(N)cc(Nc3c4ccccc4nc4ccccc34)c2)cc(OC)c1OC [Example 19, [3-(acridin-9-yl)amino-5-amino]benzyl N-(3,4,5-trimethoxyphenyl)thiocarbamate] |  |  |  |  |  | 5 (≈ 9.25 µM) |  | 
Nc1cc(COC(=O)Nc2cccc(Cl)c2)cc(Nc2c3ccccc3nc3ccccc23)c1 [Example 14, [3-(acridin-9-yl)amino-5-amino]benzyl N-(3-chlorophenyl)carbamate] |  |  |  |  |  | 1 (≈ 2.13 µM) | 1 (≈ 2.13 µM) | 
CCC=Nc1cc(CO)cc(Nc2c3ccccc3nc3ccccc23)c1 [Example 36, 3-(acridin-9-yl)amino-5-(propylideneamino)phenylmethanol] |  |  |  |  |  | 3 (≈ 8.44 µM) |  | 
COc1cc(NC(=S)OCc2cc(N)cc(Nc3c4ccccc4nc4ccccc34)c2)cc(OC)c1 [Example 18, [3-(acridin-9-yl)amino-5-amino]benzyl N-(3,5-dimethoxyphenyl)thiocarbamate] |  |  |  |  |  | 3 (≈ 5.88 µM) | 0.7 (≈ 1.37 µM) | 
Cc1cc(C)cc(NC(=O)OCc2cc(N)cc(Nc3c4ccccc4nc4ccccc34)c2)c1 [Example 6, [3-(acridin-9-yl)amino-5-amino]benzyl N-(3,5-dimethylphenyl)carbamate] | 0.72 | 0.33 | 0.40 | 0.36 | 0.37 | 3 (≈ 6.49 µM) |  | 
COc1cccc(NC(=O)OCc2cccc(Nc3c4ccccc4nc4ccccc34)c2)c1 [Example 20, 3-(acridin-9-yl)aminobenzyl N-(3-methoxyphenyl)carbamate] |  |  |  |  |  | 3 (≈ 6.67 µM) |  | 
COc1cc(NC(=O)OCc2cc(N)cc(Nc3c4ccccc4nc4ccccc34)c2)cc(OC)c1 [Example 3, [3-(acridin-9-yl)amino-5-amino]benzyl N-(3,5-dimethoxyphenyl)carbamate] |  |  |  |  |  | 3 (≈ 6.07 µM) | 1.1 (≈ 2.22 µM) | 
NCC(=O)Nc1cc(CO)cc(Nc2c3ccccc3nc3ccccc23)c1 [Example 44, N-[3-(acridin-9-yl)amino-5-(hydroxymethyl)phenyl] aminoethaneamide] |  |  |  |  |  | 3 (≈ 8.06 µM) | 0.1 (≈ 0.269 µM) | 
C[C@H](N)C(=O)Nc1cc(CO)cc(Nc2c3ccccc3nc3ccccc23)c1 [Example 45, N-[3-(acridin-9-yl)amino-5-(hydroxymethyl)phenyl] (2S)-2-aminopropaneamide] | 0.01 | 0.86 | 0.25 | 0.21 | 0.88 | 0.5 (≈ 1.29 µM) | 0.05 (≈ 0.129 µM) | LD50 at 14 days ([3]; ip): 730 mg/kg; LD50 at 14 days ([3]; iv): 133 mg/kg
COc1cc(NC(=O)OCc2cc(N)cc(Nc3c4ccccc4nc4ccccc34)c2)cc(OC)c1OC [Example 4, [3-(acridin-9-yl)amino-5-amino]benzyl N-(3,4,5-trimethoxyphenyl)carbamate] | 0.19 | 0.24 | 0.20 | 0.19 | 0.23 | 5 (≈ 9.53 µM) |  | 
COc1cc(NC(=O)OCc2cccc(Nc3c4ccccc4nc4ccccc34)c2)cc(OC)c1OC [Example 22, 3-(acridin-9-yl)aminobenzyl N-(3,4,5-trimethoxyphenyl)carbamate] |  |  |  |  |  | 5 (≈ 9.81 µM) |  | 
Nc1cc(COC(=O)Nc2ccccc2)cc(Nc2c3ccccc3nc3ccccc23)c1 [Example 1, [3-(acridin-9-yl)amino-5-amino]benzyl N-phenylcarbamate] | 0.96 | 0.57 | 0.49 | 1.15 | 0.44 | 1 (≈ 2.3 µM) |  | 
N[C@@H](Cc1ccccc1)C(=O)Nc1cc(CO)cc(Nc2c3ccccc3nc3ccccc23)c1 [Example 46, N-[3-(acridin-9-yl)amino-5-(hydroxymethyl)phenyl] (2S)-2-amino-3-phenylpropaneamide] |  |  |  |  |  | 3 (≈ 6.49 µM) | 0.1 (≈ 0.216 µM) | 
COc1cc(NC(=O)OCc2cccc(Nc3c4ccccc4nc4ccccc34)c2)cc(OC)c1 [Example 21, 3-(acridin-9-yl)aminobenzyl N-(3,5-dimethoxyphenyl)carbamate] |  |  |  |  |  | 3 (≈ 6.26 µM) |  | 
